Source: US20190142835A1, “INHIBITION OF AUTOPHAGY USING PHOSPHOLIPASE A2 INHIBITORS” (OREGON HEALTH & SCIENCE UNIVERSITY, priority 2017, published 2019)

Legend:
[1] = system: ACHN cells; assay: High content imaging screen of 116 small molecule inhibitors for p62 and pS6; type: cell-based, human; settings: HCI screen, 72 hr; for p62 expression and phosphorylation of S6: 7-point dilution series
From the text: We used a metastatic human RCC cell line, ACHN. Small molecule inhibitors have been extensively used in RCC over the last decade. […] Importantly, p62 is an autophagy substrate that is degraded along with its cargo, and so is expected to decrease with induction of autophagy. Therefore, we monitored p62 steady-state levels as an initial screen of autophagy flux. Next, we combined the measurement of the p62 with a measurement of mTORC1 activity an independent readout to evaluate autophagy. mTORC1 plays the central role in the anabolic process by increasing protein content through ribosomal biogenesis and elongation of protein translation. Specifically, mTORC1 induces mRNA translation by inducing the activation of p70S6 kinase and the subsequent phosphorylation of the S6 ribosomal protein. To ensure increased cellular biomass, mTORC1 downregulates autophagy. We chose the phosphorylation status of the downstream target of mTORC1 signaling, ribosomal S6 (hereafter S6) as a readout for mTORC1 activity.
To provide a straightforward method for detecting the induction of autophagy, we monitored ACHN cells for small molecule inhibitors which decreased the antibody labelled levels of p62 protein and pS6 phosphorylation (see methods below for detailed experiment procedure). To that end, automated high content imaging (HCl) microscopy was used to detect induction of autophagy as documented by the […] by p62 protein expression and mTORC1 inhibition by the decrease in S6 phosphorylation. The HCl assay was optimized for 384-well plate screening. Drug screening plates were designed and created as previously described.
A 7-point dilution series of 116 small molecule inhibitors covering a 1000× concentration range were plated into three, 384-well plates using the EP Motion automated dispensing system. Control wells with equal volumes of DMSO were included as negative controls. ACHN cells were grown, trypsinized counted, and plated directly into warm drug plates using Multidrop combi dispenser. Plates were incubated for 72 hr and subsequently imaged on the Olympus ScanR Platform at 10× magnification performing 4 images per well in 384 well plates. Single-cell nuclear and cytoplasmic fluorescent intensities were calculated using the Olympus ScanR Analysis Software: the DAPI-positive region of each cell was used as a boundary to quantitate nuclei counts for analysis of cell growth and integrated nuclear DNA staining intensity was used for cell cycle analysis. A 10-pixel extension of the nuclear region (and not including the nuclear region) was used to quantitate cytoplasmic signal of immunofluorescent staining of p62 protein and phosphorylation of S6. Mean signal intensity of each marker in all cells per well was used as the metric for cytoplasmic marker expression (average intensity of pS6 and p62). Unsupervised hierarchical clustering was used to identify compounds that produced similar pS6 and p62 dose response phenotypes after treatment.

[2] = system: ACHN cells; assay: Apoptosis (Caspase 3/7-Glo), ACHN; type: cell-based, human
Method: (§1) Apoptosis was determined using Caspase 3/7-Glo assay kit (Promega) following the manufacturer's instructions. Briefly, 2000 cells per well were plated in 96 well plates and cultured for 72 h. […] Caspase 3/7 activity was measured using a luminometer. Luminescence values were normalized by cell numbers.

[3] = system: PI3K, mTORC1 and mTORC2 signaling; assay: Western blotting of PI3K-AKT-mTOR signaling; type: cell-based, human
Method: Cells were plated in 6 well dishes and treated the following day with the indicated agents. Treatments were for 24 hours, after which cells were washed with ice cold PBS and lysed with RIPA buffer (Sigma). Phosphatase inhibitor cocktail set II and protease inhibitor cocktail set III (EMD Millipore) were added at the time of lysis. Lysates were centrifuged at 15,000 g×10 min at 4 degrees C. Protein concentrations were calculated based on a BCA assay (Thermo Scientific) generated standard curve. Proteins were resolved using the NuPAGE Novex Mini Gel system on 4% to 12% Bis-Tris Gels (Invitrogen). For western blotting, equal amounts of cell lysates (15-20 μg of protein) were resolved with SDSPAGE, and transferred to membranes. The membrane was probed with primary antibodies, washed, and then incubated with corresponding fluorescent secondary antibodies and washed. The fluorescent signal was captured using LI-COR (Lincoln, Nebr.) Odyssey Imaging System, and fluorescent intensity was quantified using the Odyssey software where indicated. The following antibodies were used for Western blots: p-S6 (S240/244), S6, LC3B, p-Akt(S473), p-Akt(T308), Akt, cleaved caspase3 (Cell Signaling Technologies). p-Stat3 (Y705), Stat3 and β-actin (AC15) (Abcam). Ki67 (Dako) and cleaved caspase3 (Cell Signaling Technologies) were used for immunohistochemistry. […] BX795 and GDC0941 were purchased from Sigma.

[4] = system: ACHN cells; assay: Cell viability (CellTiter-Glo), ACHN; type: cell-based, human; settings: for proliferation (cell viability): ACHN, 3 days
Method: (§2) Cell viability assays were performed by plating 2000 cells/well in 96-well plates in triplicate and treating the following day with the indicated agent. The experiment was continued for 3 days and then cell viability was determined using CellTiter-Glo assay kit (Promega).
The assay was measured using a luminometer. […] Experimental results are the average of at least three independent experiments.

[5] = system: SN12C cells; assay: Apoptosis (Caspase 3/7-Glo), SN12C; type: cell-based, human; settings: 72 h
Method: as §1

[6] = system: SN12C cells; assay: Cell viability (CellTiter-Glo), SN12C; type: cell-based, human; settings: 3 days
Method: as §2, with “(Promega). The assay was measured using a luminometer. […] Experimental results are the average of at least three independent experiments.” for “(Promega).”

[7] = system: mTORC1; assay: Autophagy induction and mTORC1 inhibition by JAK inhibitors not contained in the library; type: cell-based
[8] = system: ACHN cells; assay: Lipid droplet staining (Bodipy 493/503), ACHN; type: cell-based, human
Method: Cells were grown on coverslips then treated with drug for 24 hours. Cells were fixed in 4% paraformaldehyde for 15 min, rinsed with PBS. Cells were washed with a 1% saponin solution for 15 min at room temperature then washed several times in PBS to remove detergent. Cells were then incubated in Bodipy (ThermoFisher #D3922) at a final concentration of 1 uM for 10 min. Bodipy was removed and slides were rinsed with PBS then air dried and mounted on slides using Dako mounting media with Dapi.

[9] = system: ACHN cells; assay: Cellular respiration (XF96 Seahorse, ECAR and OCR); type: cell-based, human; settings: 24 h
Method: Oxygen consumption and extracellular acidification rates were carried out in a XF96 Seahorse Analyzer (Seahorse Bioscience, Billerica, Mass., USA). Cells were plated in the wells of 96-well plates (8×10^3 cells/well; XF96 plates, Seahorse Bioscience, North Billerica, Mass.) and incubated at 37° C. overnight. The next day, cells were treated with indicated drugs for 24 hours and then the medium was changed to XF Assay Medium and loaded with glucose, oligomycin, and 2-DG, respectively, as manufacture's recommendation.

In the case of `Cn1c(=O)n(-c2ccc(C(C)(C)C#N)cc2)c2c3cc(-c4cnc5ccccc5c4)ccc3ncc21` [BEZ-235], the “p62 expression and phosphorylation of S6” value [1] is reported as “reduced both p62 expression and phosphorylation of S6”.

`O=C(NCCCNc1nc(Nc2cccc(NC(=O)N3CCCC3)c2)ncc1I)c1cccs1` [BX795] was tested, and the “apoptosis (cleaved-caspase 3/7)” value ([2]; ACHN, 72 h) was “little or no effect on apoptosis”, the “mTORC1 or mTORC2 signaling (AKT S473 and S6 phosphorylation)” value [3] was “not able to inhibit mTORC1 or mTORC2 signaling” and the “proliferation (cell viability)” value [4] was “some anti-proliferative effects”. The “apoptosis (cleaved-caspase 3/7)” value [5] was “little or no effect on apoptosis” and the “proliferation (cell viability)” value [6] was “some anti-proliferative effects”.

For `C[C@]12O[C@H](C[C@]1(O)CO)n1c3ccccc3c3c4c(c5c6ccccc6n2c5c31)CNC4=O` [CEP-701], the autophagy induction [7] was “potently induced autophagy” and the mTORC1 inhibition [7] was “inhibited mTORC1”.

For `CN1CC[C@H](c2c(O)cc(O)c3c(=O)cc(-c4ccccc4Cl)oc23)[C@H](O)C1` [Flavopiridol], the “p62 expression and phosphorylation of S6” value [1] was “reduced both p62 expression and phosphorylation of S6”.

`CS(=O)(=O)N1CCN(Cc2cc3nc(-c4cccc5[nH]ncc45)nc(N4CCOCC4)c3s2)CC1` [GDC-0941] was tested, and the “effect on mTORC1 activity in cells treated with CYT387” value ([3]; added to CYT387) was “additive inhibitory effect on mTORC1 activity”, the “proliferation (cell viability)” value [4] was “some anti-proliferative effects” and the “proliferation (cell viability)” value [6] was “some anti-proliferative effects”.

In the case of `O=S(=O)(NCCNC/C=C/c1ccc(Br)cc1)c1cccc2cnccc12` [H89], the “p62 expression and phosphorylation of S6” value [1] is reported as “reduced both p62 expression and phosphorylation of S6”.

`O=C(c1ccc(/C=C/c2n[nH]c3ccccc23)cc1)N1CCNCC1` [KW2449] was tested, and the “induction of autophagy / autophagic flux” value [1] was “induce autophagy”.

`CCCCCCCC/C=C\CCCCCCCCOCCOP(=O)([O-])OCC[N+](C)(C)C` [OOEPC, oleyloxyethylphosphocholine] was tested, and the “apoptosis (Caspase3/7 activity) on addition to CYT387, MK2206, CYT387+MK2206” value [2] was “significantly increased apoptosis”, the “proliferation on co-treatment with CYT387, MK2206, CYT387+MK2206” value [4] was “minimal additional effect on proliferation” and the “LD abundance on addition to CYT387, MK2206 and CYT387-MK2206 co-treated cells” value ([8]; 24 hrs) was “significantly reduced the LD abundance”. For the same molecule, the “ECAR and OCR on addition to the CYT387-MK2206 combination” value [9] was “markedly decreased ECAR and OCR”, the “basal OCR on addition to the CYT387-MK2206 combination” value [9] was “marked decrease in the basal OCR” and the “spare respiratory capacity on addition to the CYT387-MK2206 combination” value [9] was “significantly reduced the spare respiratory capacity”.

In the case of `CC(C)n1nc(-c2cc3cc(O)ccc3[nH]2)c2c(N)ncnc21` [PP-242], the “p62 expression and phosphorylation of S6” value [1] is reported as “reduced both p62 expression and phosphorylation of S6”.

With `CN[C@@H]1C[C@H]2O[C@@](C)([C@@H]1OC)n1c3ccccc3c3c4c(c5c6ccccc6n2c5c31)C(=O)NC4` [Staurosporine] the “p62 expression and phosphorylation of S6” value [1] was “reduced both p62 expression and phosphorylation of S6”.

For `CC(C)C[C@H](NC(=O)[C@H](Cc1ccccc1)NC(=O)c1cnccn1)B(O)O` [Velcade], the “p62 expression and phosphorylation of S6” value [1] was “reduced both p62 expression and phosphorylation of S6”.

With `Oc1nc(-c2ccc(C(F)(F)F)cc2)nc2c1CSCC2` [XAV939] the “induction of autophagy / autophagic flux” value [1] was “induce autophagy”.

With `CCc1c(C(=O)C(N)=O)c2c(OCC(=O)O)cccc2n1Cc1ccccc1` [varespladib] the “apoptosis on addition to CYT387-MK2206 treated cells” value [2] was “increased apoptosis” and the “LDs on addition to CYT387-MK2206 treated cells” value [8] was “decreased LDs”.
